# Measured values taken from patent publication US20090155349A1, “METHODS OF TREATING INFLUENZA VIRAL INFECTIONS” (priority 2006, published 2009).
# How the values were obtained:
# MDCK cells = experiment: Toxic effects in MDCK cells
# C3HA murine fibroblasts = experiment: TNF-α-induced apoptosis, Rhodamine 123 fluorescence; details: M4N 50 μM, TNF-α 20 ng/ml + cycloheximide 10 μg/ml, 6 hours
# Experimental: C3HA murine fibroblasts were incubated with human recombinant TNF-α (20 ng/ml), cycloheximide (CHI) (10 μg/ml), or both, in the absence/presence of NDGA (25 μM) or M4N (50 μM). All compounds were added simultaneously and treatments were for 6 hours. Rhodamine 123 was added during the last half hour and fluorescence measured using a BMG POLARstar galaxy flourimeter.
# More specifically, C3HA cells were cultured in Dulbecco's modified Eagles medium supplemented with 10% fetal bovine serum and maintained at 37° C. in 8% carbon dioxide. […] For apoptosis assays, cells were harvested by trypsinization, centrifuged, counted and 1.5×10^4 cells added to each well of a flat bottom 96 well microtiter plate in culture media. Cells were allowed to adhere at least six (6) hours prior to the addition to TNF (20 ng/ml), CHI (10 μg/milliliter), or both, in the absence/presence of nordihydroguaiaretic acid (25 μM) or M4N (50 μM). […] Both were dissolved in culture media. […] Rhodamine 123 is sequestered by energized mitochondria and live healthy cells display strong mitochondrial fluorescence. […] Fluorescence intensity was then determined using a BMG POLARstar galaxy microplate reader with excitation and emission wavelengths set at 492 and 538 nanometers, respectively. All points were performed in triplicate and percentage cell death was calculated from the following formula: […]
# influenza virus A/WS/33 = experiment: microbe, parasite or virus in culture; type: cell-based
structure (smiles),measurement,setting,value
"COc1ccc(C[C@@H](C)[C@@H](C)Cc2ccc(OC)c(OC)c2)cc1OC [M4N, meso-1,4-bis(3,4-dimethoxyphenyl)-2,3-dimethylbutane]",highest concentration that could be used without causing toxic effects,MDCK cells,25 µM
same,inhibition of TNF-α-induced apoptosis,C3HA murine fibroblasts,strongly inhibits
same,inhibitory effect on virus titer (log plot),"influenza virus A/WS/33; EM-1421 25 μM, MDCK cells",less than 1 log unit
same,inhibition at 25 µM,"influenza virus A/WS/33; MDCK, 0.5 h, read-out: inhibition of A/WS/33 replication in MDCK cells",~75%
